{
  "source": "patent US11427807B2",
  "about": "“Serum-free medium containing PDGF for DS cells” (Shiseido Company, Ltd., priority 2013, dated 2022)",
  "test_system": "dermal sheath (DS) cells",
  "assay": "Growth of DS cells using serum-free medium",
  "assay_type": "cell-based, human",
  "details": "culturing in serum-free medium containing added PDGF",
  "description": "A 12-well plate (BD) was coated with CELLStart™ (Life Technologies), and cryopreserved DS cells (from person scalp, DSC, passage number: 0) were suspended in 1 ml of serum-free medium and seeded on the plate at 4×10^4 cells per well. The serum-free media used were 1) HFDM-1(−) medium (Cell Science & Technology Institute), 2) HFDM-1(+) medium (Cell Science & Technology Institute), 3) PDGF-AA (10 ng/ml)-dissolved HFDM-1(−) medium and 4) PDGF-BB (10 ng/ml)-dissolved HFDM-1(−) medium. Culturing was conducted at 37° C. in the presence of 5% carbon dioxide gas. The cells were observed under microscopy on days 2, 5 and 10 (FIG. 1: 40×), and the number of cells per visual field was counted (FIG. 2).\nA 12-well plate (BD) was coated with CELLStart™ (Life Technologies), and cryopreserved DS cells (from person scalp, DSC, passage number: 0) were suspended in 1 ml of serum-free medium and seeded on the plate at 4×10^4 cells per well. The serum-free media used were 1) StemProSFM CTS (sup+, Life Technologies), 2) PDGF-BB (10 ng/ml)-dissolved StemProSFM CTS (sup+, Life Technologies) and 3) Mosaic hMSC SF Culture Medium (sup+, BD) and 4) PDGF-BB (10 ng/ml)-dissolved Mosaic hMSC SF Culture Medium (sup+, BD). […] The cells were observed under microscopy on days 2 and 7 (FIG. 3: 40×), and the number of cells per visual field was counted (FIG. 4). […]",
  "data": [
    {"substance": "PDGF", "values": [
      {"measurement": "growth of DS cells (number of cells per visual field)", "value": "significantly grow DS cells"}
    ]}
  ]
}
